# Measured values published in PubChem BioAssay AID463211 (Broad Institute, 2010).
# Calls of active or inactive are those of the source.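 How the source made its calls: active means loss of HeLa cell viability with AC50 at most tenfold above the top tested dose; inconclusive means flat fit with signal drop between 30% and 70%, or poor fit; inactive means AC50 more than tenfold above top tested dose.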
# Tested on: HeLa viability, ATP luminescence (CellTiterGlo), 48 h
# Assay: mammalian cell viability by ATP level – luminescence, HeLa, cytotoxicity control for LANA inhibitor project, dose response (AID 463211)
row,Compound,AC50
1,O=c1ccc2c(-c3ccccc3)c3ccc(O)cc3oc-2c1,> 35 µM (inactive)
2,COc1ccc(C2C=C(c3ccc(Br)cc3)Nc3nc(NS(C)(=O)=O)nn32)cc1 (centres undefined),> 35 µM (inactive)
3,Cc1cccc(N2C(=O)c3cccc4c(N(C)CCO)ccc(c34)C2=O)c1,> 35 µM (inactive)
4,O=C1c2ccccc2-c2onc3ccc(NCCCn4ccnc4)c1c23,32.4 µM
5,CC(=O)Nc1cccc(N)c1,> 35 µM (inactive)
6,Cc1cc2nc3c(=O)n(Cc4ccccc4)c(=O)[nH]c3nc2cc1N,> 35 µM (inactive)
7,Cc1n[nH]c(C)c1N1C(=O)c2cccc3c(N4CCCCCC4)ccc(c23)C1=O,> 35 µM (inactive)
8,CN(C)/C=C1\C=C2C(=O)c3ccccc3N2C1=O,> 35 µM (inactive)
9,Cn1nc(-c2ccccc2)c2nc3ccccc3nc21,> 35 µM (inactive)
10,O=C1c2ccccc2-c2onc3ccc(NCc4ccco4)c1c23,28.5 µM
11,COc1ccc2c3c(cccc13)C(=O)CC2,22.3 µM
12,CC(=O)Nc1ccc(-c2cn3ccsc3n2)cc1,> 35 µM (inactive)
13,CC1=NCCc2c1[nH]c1cc(O)ccc21,> 35 µM (inactive)
14,Cc1ccc(Cl)cc1N1CCN(C(=O)C2CCN(S(C)(=O)=O)CC2)CC1,> 35 µM (inactive)
15,COc1cccc2c1C(=O)c1c(O)c3c(c(O)c1C2=O)CC(O)(C(=O)CO)CC3OC1CC(N)C(O)C(C)O1 (centres undefined),4.4 µM
16,Cc1cc(C)cc(NS(=O)(=O)c2ccc3c(c2)C(C)(C)C(=O)N3C)c1,> 35 µM (inactive)
17,O=C1CCN2C=Nc3cccc4ccc1c2c34,8.08 µM
18,CCCCCCn1c(=O)[nH]c2nc3cc(N)ccc3nc2c1=O,> 35 µM (inactive)
19,Cc1cc(C)c2nc(C(F)(F)F)nc(NCCCN3CCCC3=O)c2c1,> 35 µM (inactive)
20,CC(C)CSC1=NSC2=NC(=O)/C(=C\c3coc4ccccc4c3=O)C(=N)N12,> 35 µM (inactive)
21,CCCCCCCCCCCCCCCC[n+]1ccc(/C=N/O)cc1,11.9 µM
22,O=S(=O)(Nc1cc(Cl)ccc1N1CCOCC1)c1ccccc1Cl,> 35 µM (inactive)
23,CC(=O)Oc1ccc2c(c1)Oc1cc(OC(C)=O)ccc1C21OC(=O)c2ccccc21,> 35 µM (inactive)
24,Cc1nn(C)cc1N1C(=O)c2cccc3c(N)ccc(c23)C1=O,> 35 µM (inactive)
25,COc1ccc2ccccc2c1C(O)c1nccn1C (centres undefined),> 35 µM (inactive)
26,Cc1nn(C)c(C)c1N1C(=O)c2cccc3c(N)ccc(c23)C1=O,> 35 µM (inactive)
27,CC1Cc2ccccc2N1C(=O)CSc1ncccn1 (centres undefined),> 35 µM (inactive)
28,O=C(CCCN1C(=O)c2cccc3cccc(c23)C1=O)N1CCN(c2ccccc2)CC1,> 35 µM (inactive)
29,CC(C)(C)C1(C)OC(=O)C(=Cc2ccc(OCC(=O)Nc3ccccc3)cc2)C(=O)O1 (centres undefined),> 35 µM (inactive)
